{"source": "ChEMBL document CHEMBL1140606", "about": "“Green tea catechins inhibit bacterial DNA gyrase by interaction with its ATP binding site” (J Med Chem, 2007)", "key": {"Escherichia coli [1]": {"system": "Escherichia coli", "assay": "(§1) Inhibition of Escherichia coli DNA gyrase B supercoiling activity"}, "Escherichia coli [2]": {"system": "Escherichia coli", "assay": "Displacement of ethidium bromide from Escherichia coli DNA gyrase B"}, "[3]": {"assay": "Displacement of fluorescent quercetin from Escherichia coli BL21 (DE3) recombinant DNA gyrase B G24"}, "Escherichia coli [4]": {"system": "Escherichia coli", "assay": "Displacement of picogreen from Escherichia coli DNA gyrase B"}, "Escherichia coli [5]": {"system": "Escherichia coli", "assay": "Antibacterial activity against Escherichia coli", "type": "functional"}, "Escherichia coli [6]": {"system": "Escherichia coli", "assay": "Inhibition of Escherichia coli DNA gyrase B supercoiling activity upto 100 uM"}, "Escherichia coli [7]": {"system": "Escherichia coli", "assay": "Inhibition of Escherichia coli DNA gyrase B ATPase activity"}, "[8]": {"assay": "as §1"}}, "note": "pIC50, pKd: −log10 of the molar value. Calls of active or inactive are those of the source. The rule behind the calls is not given here.", "data": [{"smiles": "Oc1cc(O)c2c(c1)O[C@H](c1ccc(O)c(O)c1)[C@H](O)C2", "note": "[(-)-EPICATECHIN]", "values": [{"measurement": "Activity", "setting": "Escherichia coli [1]", "result": "inactive"}, {"measurement": "Activity", "setting": "Escherichia coli [2]", "result": "inactive"}, {"measurement": "pKd", "setting": "[3]", "result": 4.27}, {"measurement": "Activity", "setting": "Escherichia coli [4]", "result": "inactive"}, {"measurement": "MIC", "setting": "Escherichia coli [5]", "result": "> 1000", "unit": "µM"}, {"measurement": "Activity", "setting": "Escherichia coli [6]", "result": "inactive"}, {"measurement": "Activity", "setting": "Escherichia coli [7]", "result": "inactive"}]}, {"smiles": "O=C(O[C@@H]1Cc2c(O)cc(O)cc2O[C@@H]1c1ccc(O)c(O)c1)c1cc(O)c(O)c(O)c1", "note": "[EPICATECHIN GALLATE]", "values": [{"measurement": "pIC50", "setting": "[8]", "result": 4.30}, {"measurement": "Activity", "setting": "Escherichia coli [2]", "result": "inactive"}, {"measurement": "pKd", "setting": "[3]", "result": 4.44}, {"measurement": "Activity", "setting": "Escherichia coli [4]", "result": "inactive"}, {"measurement": "MIC", "setting": "Escherichia coli [5]", "result": 25, "unit": "µM"}, {"measurement": "Activity", "setting": "Escherichia coli [7]", "result": "Active"}]}, {"smiles": "Oc1cc(O)c2c(c1)O[C@H](c1cc(O)c(O)c(O)c1)[C@H](O)C2", "note": "[EPIGALLOCATECHIN]", "values": [{"measurement": "Activity", "setting": "Escherichia coli [2]", "result": "inactive"}, {"measurement": "pKd", "setting": "[3]", "result": 4.47}, {"measurement": "Activity", "setting": "Escherichia coli [4]", "result": "inactive"}, {"measurement": "MIC", "setting": "Escherichia coli [5]", "result": 100, "unit": "µM"}, {"measurement": "Activity", "setting": "Escherichia coli [6]", "result": "inactive"}, {"measurement": "Activity", "setting": "Escherichia coli [7]", "result": "Active"}]}, {"smiles": "O=C(O[C@@H]1Cc2c(O)cc(O)cc2O[C@@H]1c1cc(O)c(O)c(O)c1)c1cc(O)c(O)c(O)c1", "note": "[EPIGALOCATECHIN GALLATE]", "values": [{"measurement": "pIC50", "setting": "[8]", "result": 4.30}, {"measurement": "Activity", "setting": "Escherichia coli [2]", "result": "inactive"}, {"measurement": "pKd", "setting": "[3]", "result": 4.64}, {"measurement": "Activity", "setting": "Escherichia coli [4]", "result": "inactive"}, {"measurement": "MIC", "setting": "Escherichia coli [5]", "result": 10, "unit": "µM"}, {"measurement": "Activity", "setting": "Escherichia coli [7]", "result": "Active"}]}, {"smiles": "O=c1c(O)c(-c2ccc(O)c(O)c2)oc2cc(O)cc(O)c12", "note": "[QUERCETIN]", "values": [{"measurement": "pKd", "setting": "[3]", "result": 4.82}]}]}
